Test results published in patent US6774141B1, “Calanolide and related antiviral compounds, compositions, and uses thereof” (The United States of America as represented by the …, priority 1992, dated 2004).
Where two headings read alike, the source gives them in different places.

Columns and labels:
HIV-1 [1] = experiment: microbe, parasite or virus in culture; settings: for anti-HIV activity in the primary screening assay / inhibition of the cytopathic effects of HIV-1 upon CEM-SS cells: result in words; for antiviral potency relative to calanolide A: overall of XTT and BCECF assays; for inhibition of the cytopathic effects of HIV-1 upon CEM-SS cells: battery of interrelated assays, 6 days
From the text: Pure compounds were initially evaluated for antiviral activity using an XTT-tetrazolium anti-HIV primary screening assay described previously (Boyd, M. R., in AIDS Etiology, Diagnosis, Treatment and Prevention (DeVita V. T., Jr., Hellman S., Rosenberg S. A., eds.), pp 305-319 (Philadelphia: Lippincott, 1988); Gustafson, K. R., et al., J. Med. Chem., 35, 1978-1986 (1992); Weislow, O. S., et al., J. Natl. Cancer Inst., 81, 577-586 (1989); Gulakowski, R. J., et al., J. Virol. Methods, 33, 87-100 (1991)). The CEM-SS human lymphocytic target cell line used in all assays was maintained in RPMI 1640 medium (Gibco, Grand Island, N.Y.), without phenol red, and was supplemented with 5% fetal bovine serum, 2 mM L-glutamine and 50 μg/ml gentamicin (complete medium). Exponentially-growing cells were pelleted and resuspended at a concentration of 2.0×10^5 cells/ml in complete medium. The Haitian variant of HIV, HTLV-IIIRF (3.54×10^6 SFU/ml), was used throughout. Frozen virus stock solutions were thawed immediately before use and resuspended in complete medium to yield […]. The appropriate amounts of the pure compounds for anti-HIV evaluations were dissolved in 100% dimethylsulfoxide (DMSO), then diluted in complete medium to the desired initial concentration (and with the final DMSO content not exceeding 1%). All serial drug dilutions, reagent additions, and plate-to-plate transfers were carried out with an automated Biomek 1000 Workstation (Beckman Instruments, Palo Alto, Calif.).
Briefly, the procedure was as follows. Uninfected CEM-SS cells were plated at a density of 1×10^4 cells in 50 μl of complete medium. Diluted HIV-1 virus was then added to appropriate wells in a volume of 50 μl to yield a multiplicity of infection of 0.6. Appropriate cell, virus and drug controls were incorporated in each experiment; the final volume in each microtiter well was 200 μl. Quadruplicate wells were used for virus-infected cells, and duplicate wells were used for uninfected cells. Plates were incubated at 37° C. in an atmosphere containing 5% CO2 for 6 days. Subsequently, aliquots of cell-free supernatant were removed from each well using the Biomek, and analyzed for reverse transcriptase activity, p24 antigen production and synthesis of infectious virions as described (Gulakowski, R. J., et al., J. Virol. Methods, 33, 87-100 (1991)). Cellular growth or viability then was estimated on the remaining contents of each well using the XTT (Weislow, O. S., et al., J. Natl. Cancer Inst., 81, 577-586 (1989)), BCECF (Rink, T. L., et al., J. Cell. Biol., 95, 189-196 (1982)) and DAPI (McCaffrey, T. A., et al., In Vitro Cell Develop. Biol., 24, 247-252 (1988)) assays as described (Gulakowski, R. J., et al., J. Virol. Methods, 33, 87-100 (1991)).

CEM-SS cells [2] = experiment: XTT assay, direct cytotoxicity upon uninfected CEM-SS target cells; assay type: cell-based, human
From the text: (§1) Briefly, the procedure was as follows.

CEM-SS cells [3] = experiment: BCECF assay, direct cytotoxicity upon uninfected CEM-SS target cells; assay type: cell-based, human; settings: quadruplicate tests, cytotoxicity to CEM-SS, read-out: IC50 μM (± SD) BCECF
From the text: as §1

HIV-1 [4] = settings: for EC50: read-out: EC50 μM (±S.D.) p24, quadruplicate tests, supernatant viral core protein
HIV-1 [5] = settings: for EC50: read-out: EC50 μM (±S.D.) RT, quadruplicate tests, supernatant reverse transcriptase
HIV-1 [6] = settings: for EC50: read-out: EC50 μM (±S.D.) SFU, quadruplicate tests, supernatant syncytium-forming units
[7] = XTT assay, direct cytotoxicity upon uninfected CEM-SS target cells; assay type: cell-based, human; settings: human, uninfected CEM-SS cells; FIGS. 4A-D, CEM-SS cells, 6 days
From the text: as §1

HIV-1 [8] = experiment: microbe, parasite or virus in culture; settings: Human immunodeficiency virus 1, CEM-SS, read-out: EC50 μM (±S.D.) p24
HIV-1 [9] = experiment: microbe, parasite or virus in culture; settings: Human immunodeficiency virus 1, CEM-SS, read-out: EC50 μM (±S.D.) RT
HIV-1 [10] = experiment: microbe, parasite or virus in culture; settings: Human immunodeficiency virus 1, CEM-SS, read-out: EC50 μM (±S.D.) SFU
HIV = settings: in most patients; cited from earlier work
[11] = primary screening assay, HIV-1 in CEM-SS cells
[12] = primary screening assay, cytotoxicity to CEM-SS cells, read-out: IC50
[13] = read-out: EC50 μM (± SD) BCECF, quadruplicate tests, HIV-1 strain RF, CEM-SS
[14] = read-out: EC50 μM (± SD) XXT, quadruplicate tests, HIV-1 strain RF, CEM-SS
[15] = quadruplicate tests, cytotoxicity to CEM-SS, read-out: IC50 μM (± SD) XXT
[16] = HIV-1-infected CEM-SS, FIG. 4D, result in words

Compound	anti-HIV activity in the primary screening assay (HIV-1 [1]; HIV-1 in CEM-SS cells)	antiviral potency relative to calanolide A (HIV-1 [1]; HIV-1 strain RF, CEM-SS)	EC50 (HIV-1 [1]; [13])	EC50 (HIV-1 [1]; [14])	IC50 (CEM-SS cells [2]; [15])	IC50 (CEM-SS cells [3])	EC50 (HIV-1 [4])	EC50 (HIV-1 [5])	EC50 (HIV-1 [6])	further results
CCCc1cc(=O)oc2c3c(c4c(c12)OC(C)(C)C=C4)O[C@H](C)[C@@H](C)[C@@H]3OC(C)=O [12-acetoxycalanolide A]	active	–	–	–	–	–	–	–	–	EC50 (HIV-1 [1]; [11]): 2.7 µM; IC50 (CEM-SS cells [2]; [12]): 13 µM
CCCc1cc(=O)oc2c3c(c4c(c12)OC(C)(C)C=C4)O[C@H](C)[C@@H](C)[C@@H]3OC [12-methoxycalanolide A]	not detectable	–	–	–	–	–	–	–	–	–
CCCc1cc(=O)oc2c3c(c4c(c12)OC(C)(C)C=C4)O[C@H](C)[C@@H](C)[C@H]3OC [12-methoxycalanolide B]	weak but detectable	–	–	–	–	–	–	–	–	–
CCCc1cc(=O)oc2c3c(c4c(c12)OC(C)(C)C=C4)OC(C)C(C)C3O (stereo not shown) [Compound 6]	weak but detectable	–	–	–	–	–	–	–	–	–
CCCc1cc(=O)oc2c3c(c4c(c12)OC(C)(C)C=C4)O[C@@H](C)[C@H](C)[C@@H]3O [Costatolide, costatolide]	–	about ⅔	0.2 µM	0.23 µM	10 µM	8 µM	0.11 µM	0.12 µM	0.14 µM	–
CCCc1cc(=O)oc2c3c(c4c(c12)OC(C)(C)CC4)O[C@H](C)[C@@H](C)[C@@H]3O [DH-calanolide A, 7,8-dihydrocalanolide A]	–	about ⅔	0.19 µM	0.23 µM	12.5 µM	18.7 µM	0.12 µM	0.13 µM	0.17 µM	–
CCCc1cc(=O)oc2c3c(c4c(c12)OC(C)(C)CC4)O[C@@H](C)[C@H](C)[C@@H]3O [DH-costatolide, 7,8-dihydrocostatolide]	–	about ⅓	0.31 µM	0.3 µM	18.7 µM	10.3 µM	0.24 µM	0.25 µM	0.19 µM	–
CCCc1cc(=O)oc2c3c(c4c(c12)OC(C)(C)C=C4)O[C@H](C)[C@@H](C)[C@@H]3O [calanolide A]	complete protection	–	–	–	–	–	–	–	–	EC50 (HIV-1 [1]; Human immunodeficiency virus 1, CEM-SS, 144 h, read-out: EC50, inhibition of the cytopathic effects of HIV-1): ~0.1 µM; EC50 (HIV-1 [1]; Human immunodeficiency virus 1, CEM-SS, read-out: EC50 μM (± SD) BCECF): 0.16 µM; EC50 (HIV-1 [1]; Human immunodeficiency virus 1, CEM-SS, read-out: EC50 μM (± SD) XXT): 0.13 µM; inhibition of the cytopathic effects of HIV-1 upon CEM-SS cells (HIV-1 [1]): complete inhibition; IC50 at 6 days [7]: ~13000 nM; IC50 (CEM-SS cells [2]; Homo sapiens, quadruplicate tests, cytotoxicity to CEM-SS, read-out: IC50 μM (± SD) XXT): 14.3 µM; IC50 (CEM-SS cells [3]; Homo sapiens): 14.3 µM; production of p24 (HIV-1 [4]; [16]): strikingly inhibited; production of RT (HIV-1 [5]; [16]): strikingly inhibited; production of SFU (HIV-1 [6]; [16]): strikingly inhibited; EC50 (HIV-1 [8]): 0.07 µM; EC50 (HIV-1 [9]): 0.07 µM; EC50 (HIV-1 [10]): 0.08 µM
Nc1ccn([C@H]2CC[C@@H](CO)O2)c(=O)n1 [ddC, 2′,3′-dideoxycytidine]	–	–	–	–	–	–	–	–	–	virustatic range, dose (HIV): 0.005-0.25 mg/kg body weight
calanolide B	complete inhibition	–	–	–	–	–	–	–	–	inhibition of the cytopathic effects of HIV-1 upon CEM-SS cells (HIV-1 [1]): complete protection; EC50 (HIV-1 [1]; [11]): 0.4 µM; IC50 (CEM-SS cells [2]; [12]): 15 µM
